Experimental findings from US20020160986A1, “Compounds having activity as inhibitors of cytochrome P450RAI” (priority 2000, published 2002) are described below.

Read-outs that look alike come from different tables or passages of the source.

Data set [1] deals with skin of hairless mice. The conditions noted are these: topical in acetone, once daily days 1 through 5, mean ±SD, range 0-21. The source says: This irritation is a direct result of activation of the RAR nuclear receptors. Analysis of retinoid topical irritation is also a highly reproducible method of determining in vivo retinoid potency. The SKH1-hrBR or hairless mouse provides a convenient animal model of topical irritation, since retinoid-induced skin flaking and abrasion can be readily scored by eye (Standeven et al., “Specific antagonist of retinoid toxicity in mice.” Toxicol. Appl. Pharmacol., 138:169-175, (1996); Thacher, et al., “Receptor specificity of retinoid-induced hyperplasia. Effect of RXR-selective agonists and correlation with topical irritation”. J. Pharm. Exp. Ther., 282:528-534, (1997)).
Female hairless mice (Crl:SKH1-hrBR), 5-7 weeks old, were obtained from Charles River Breeding Labs (Wilmington, Mass.). […]
The mice were weighed daily and the dorsal skin was graded daily using separate semi-quantitative scales to determine flaking and abrasion. […]
Flaking onset score (2) and average severity score (3) are summed and divided by two. […] Composite flaking scores are calculated for each individual animal in a group, averaged, and rounded to the nearest integer. […]
Abrasion onset score (5) and average severity score (6) are summed and divided by two. […] Composite abrasion scores are calculated for each individual animal in a group, averaged and rounded to the nearest integer. […]

Data set [2] addresses T1, P450RAI-1 stably transfected HeLa cells (Homo sapiens, UniProt O43174).
T1 construct: expressed in transfected cells; host or cells: HeLa cells, stably transfected, hygromycin selection
T1 sequence (O43174 1-497): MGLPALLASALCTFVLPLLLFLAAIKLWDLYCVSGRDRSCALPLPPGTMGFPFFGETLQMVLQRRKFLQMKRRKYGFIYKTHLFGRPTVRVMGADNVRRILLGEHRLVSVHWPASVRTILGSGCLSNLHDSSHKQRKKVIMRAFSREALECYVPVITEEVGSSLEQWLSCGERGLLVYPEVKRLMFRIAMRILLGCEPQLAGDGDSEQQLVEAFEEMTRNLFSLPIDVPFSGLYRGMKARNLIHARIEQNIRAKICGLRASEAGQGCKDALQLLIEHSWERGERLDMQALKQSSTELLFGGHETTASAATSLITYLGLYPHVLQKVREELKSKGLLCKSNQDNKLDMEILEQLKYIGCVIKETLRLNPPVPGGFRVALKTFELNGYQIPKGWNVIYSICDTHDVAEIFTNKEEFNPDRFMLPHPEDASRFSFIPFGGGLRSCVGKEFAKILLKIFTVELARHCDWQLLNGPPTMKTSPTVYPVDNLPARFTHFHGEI
In words: P450RAI-1 cell-based inhibitor assay. As to conditions: inhibition of all-trans-RA metabolism, [3H]-RA, 3 hours at 37° C.; read-out: P450RAI INHIBITION DATA INTACT HELA IC50. The protocol:
P450RAI-1 Cell-Based Inhibitor Assay:
P450RAI -1 stably transfected HeLa cells are maintained in […] tissue culture dishes in Modified Eagle's Medium (MEM) containing 10% Fetal Bovine Serum (FBS) and 100 μg/ml hygromycin. Exponentially growing cells are harvested by incubating in trypsin. Cells are then washed with 1× Phosphate Buffered Saline (PBS) and plated in a 48-well plate at 5×10^5 cells in 0.2 ml MEM medium containing 10% FBS and 0.05 μCi [^3H]-RA in the presence or absence of increasing concentrations of the test compounds. The compounds are diluted in 100% DMSO and then added in triplicate wells at either 10, 1 or 0.1 μM final concentration. As a positive control for RA metabolism inhibition, cells are also incubated with ketoconazole at 100, 10 and 1 μM. Cell are incubated for 3 hours at 37° C. […] The water soluble radioactivity is quantified using a β-scintillation counter. IC50 values represent the concentration of inhibitor required to inhibit all-trans-RA metabolism by 50 percent and are derived manually from log-transformed data.

Data set [3] has as its target T2, RARα (Homo sapiens, UniProt P10276).
T2 sequence (P10276 1-462): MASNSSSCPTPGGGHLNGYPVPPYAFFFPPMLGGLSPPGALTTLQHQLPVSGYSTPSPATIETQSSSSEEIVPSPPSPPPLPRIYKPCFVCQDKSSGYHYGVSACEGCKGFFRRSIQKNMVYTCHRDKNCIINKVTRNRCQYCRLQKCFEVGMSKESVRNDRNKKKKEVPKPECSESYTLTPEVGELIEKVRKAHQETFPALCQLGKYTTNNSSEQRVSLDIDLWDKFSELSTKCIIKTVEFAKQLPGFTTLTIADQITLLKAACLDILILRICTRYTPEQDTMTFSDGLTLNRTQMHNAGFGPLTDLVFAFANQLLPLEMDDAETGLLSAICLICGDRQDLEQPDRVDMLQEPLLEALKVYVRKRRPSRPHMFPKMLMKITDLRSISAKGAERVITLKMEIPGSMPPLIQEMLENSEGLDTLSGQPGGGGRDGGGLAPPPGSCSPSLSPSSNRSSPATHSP
Put plainly: ligand binding assay, RARα. The conditions noted are these: read-out: RAR α Kd. An excerpt: (§1) Assays described below measure the ability of a compound to bind to, and/or activate various retinoid receptor subtypes. When in these assays a compound binds to a given receptor subtype and activates the transcription of a reporter gene through that subtype, then the compound is considered an agonist of that receptor subtype. […] In the below described assays the ability of the compounds to bind to RAR60 , RAR62 , RARγ, RXR60 , RXR62 , and RXRγ receptors, and the ability or inability of the compounds to activate transcription of a reporter gene through these receptor subtypes can be tested.
A holoreceptor transactivation assay and a ligand binding assay which measure the antagonist/agonist like activity of the compounds of the invention, or their ability to bind to the several retinoid receptor subtypes, respectively, are described in published PCT Application No. WO WO93/11755 (particularly on pages 30-33 and 37-41) published on Jun. 24, 1993, the specification of which is also incorporated herein by reference. A detailed experimental procedure for holoreceptor transactivations has been described by Heyman et al. Cell 68,397-406, (1992); Allegretto et al. J. Biol. Chem. 268,26625-26633, and Mangelsdorf et al. The Retinoids: Biology, Chemistry and Medicine, pp 319-349, Raven Press Ltd., New York, which are expressly incorporated herein by reference. […]

Data set [4] addresses T3, RARβ (Homo sapiens, UniProt P10826).
T3 sequence (P10826 1-455): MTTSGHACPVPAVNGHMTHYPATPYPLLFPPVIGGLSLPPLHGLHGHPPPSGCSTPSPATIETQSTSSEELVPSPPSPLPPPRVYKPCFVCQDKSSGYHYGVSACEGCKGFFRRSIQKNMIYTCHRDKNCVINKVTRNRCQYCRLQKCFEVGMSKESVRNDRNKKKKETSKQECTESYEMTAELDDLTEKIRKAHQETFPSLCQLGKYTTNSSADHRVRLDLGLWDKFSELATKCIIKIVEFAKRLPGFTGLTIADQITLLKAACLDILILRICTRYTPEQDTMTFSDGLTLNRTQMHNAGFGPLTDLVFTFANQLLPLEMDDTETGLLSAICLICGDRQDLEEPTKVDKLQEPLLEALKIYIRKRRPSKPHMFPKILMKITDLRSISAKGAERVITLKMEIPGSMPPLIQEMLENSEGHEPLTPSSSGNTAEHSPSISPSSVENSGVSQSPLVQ
In words: ligand binding assay, RARβ. The conditions noted are these: read-out: RAR β Kd.
Excerpt: as §1
A holoreceptor transactivation assay and a ligand binding assay which measure the antagonist/agonist like activity of the compounds of the invention, or their ability to bind to the several retinoid receptor subtypes, respectively, are described in published PCT Application No. WO WO93/11755 (particularly on pages 30-33 and 37-41) published on Jun. 24, 1993, the specification of which is also incorporated herein by reference. […] The results obtained in this assay are expressed in EC50 numbers, as they are also in the chimeric receptor transactivation assay. The results of ligand binding assay are expressed in Kd numbers. (See Cheng et al. Biochemical Pharmacology Vol. 22 pp 3099-3108, expressly incorporated herein by reference.)

Regarding `CC1(C)CCC(=O)c2ccc(C#Cc3ccc(CC(=O)O)c(F)c3)cc21` [Compound 15, [2-Fluoro-4-(8.8-dimethyl-5-oxo-5,6,7,8-tetrahydro-naphthalene-2-yl-ethynyl)phenyl]-acetic acid], the “Cutaneous Toxicity Score (Blackjack Score)” value in data set [1] (100 nmole (nmol/25 g)) is 1 ± 1; in data set [1] (1000 nmole (nmol/25 g)), 5 ± 2.
Take `Cc1cc(C#Cc2ccc(CC(=O)O)cc2)ccc1Cn1ccnc1` [Compound 121, [4-(4-Imidazol-1-yl-methyl-3-methyl-phenylethynyl)-phenyl]-acetic acid]: in data set [2], the IC50 amounted to 0.18 µM. The Kd in data set [3] was > 10 µM; in data set [4], > 100 µM.
